In patent US11352382B2, “Mito-lonidamine, compositions and methods of use” (THE MEDICAL COLLEGE OF WISCONSIN, INC., priority 2018, dated 2022):

Assays:
mitochondrial Complex I [1] = assay: Activity of mitochondrial complexes in permeabilized tumor cells (OCR), pancreatic cancer cells; assay type: cell-based, human
Description: To investigate the mechanism of mitochondrial inhibition, we measured the activity of mitochondrial complexes in tumor cells. The cell membrane was permeabilized, and OCR was measured upon addition of substrates and inhibitors of mitochondrial complexes I-II.

cytosolic Prx1 = assay: Redox status of cytosolic peroxiredoxin; assay type: cell-based, human; settings: lung cancer cells
From the text: Inhibition of mitochondrial respiration results in increased O2^⋅− and other oxidants.

intact lung cancer cells = assay: Cellular respiration (oxygen consumption rate, OCR) in intact lung cancer cells; assay type: cell-based, human; settings: not shown
From the text: (§1) LON and Mito-LON inhibit mitochondrial complex I activity. Mito-LON inhibited cellular respiration (oxygen consumption rate, OCR) at >100-fold lower concentration than LON in intact lung cancer cells (FIG. 9). Both basal respiration and the response to mitochondrial stressors (oligomycin, dinitrophenol) were diminished by Mito-LON (not shown). To investigate the mechanism of mitochondrial inhibition, we measured the activity of mitochondrial complexes in H2030BrM3 cells (NSCLC cell line). The cell membrane was permeabilized, and OCR was measured upon addition of substrates and inhibitors of mitochondrial complexes I-IV (FIG. 9A). These studies established the optimal use of permeabilized cells for complex activity assays.^54 Next, cells were pretreated with LON and Mito-LON for 24 h and experiments performed as in FIG. 9A. […] We hypothesize that inhibition of mitochondrial complexes I and II is the predominant mechanism for antiproliferative effects of Mito-LON on lung cancer cells.

mitochondrial Complex I [2] = assay: Mitochondrial complex I activity (OCR) in permeabilized H2030BrM3 cells after 24 h pretreatment; assay type: cell-based, human
From the text: as §1

[3] = test system: phosphorylated ERK and AKT in H2030BrM3 cells; assay: Receptor tyrosine kinase assay and Western blots of ERK and AKT phosphorylation; assay type: cell-based, human
From the text: Role of HK2 and additional possible signaling events that contribute to the effects of Mito-LON. […] This could contribute to their effects as many cancers have constitutive ERK activation which promotes survival and proliferation, and ERK1 can play an important role in regulating mitochondrial activity, apoptosis, proliferation and migration. […] AKT is another pro-survival factor that is constitutively activated (phosphorylated) in many cancers.

H2030BrM3 cells = assay: Cell proliferation, IncuCyte Live-Cell Imaging Analyzer (cell confluence); assay type: cell-based; settings: Homo sapiens, H2030-BrM3, read-out: IC50, cell proliferation
Description: In contrast, Mito-LON (1.2-2.7 μM) targets mitochondrial complexes I and II (FIG. 9); its mitochondrial effects are supported by the compartment-selective oxidation of mitochondrial Prx3 (FIG. 13). The anti-proliferative effects of Mito-LON and LON were compared in H2030BrM3 cells.

O=C(NCCCCCCCCCC[P+](c1ccccc1)(c1ccccc1)c1ccccc1)c1nn(Cc2ccc(Cl)cc2Cl)c2ccccc12 [Mito-LON, Mito10-lonidamine]
Complex I versus Complex II inhibition (mitochondrial Complex I [1]; FIG. 7): inhibits Complex I more potently than Complex II | fold more potent than lonidamine in inhibiting Complex I activity of tumor cells (mitochondrial Complex I [1]; FIGS. 7 and 8): > 500 fold | effect on cytosolic Prx1 (cytosolic Prx1): without significant effect | basal respiration and response to mitochondrial stressors (oligomycin, dinitrophenol) (intact lung cancer cells): diminished | fold more potent than LON for complex I (mitochondrial Complex I [2]; 24 h pretreatment, FIG. 9B): 370 fold | Ki (mitochondrial Complex I [2]; FIG. 9): 1200 nM | IC50 (mitochondrial Complex I [2]; H2030BrM3 lung cancer cells, FIG. 9, read-out: IC50, respiratory complex I): 1200 nM | phosphorylated AKT levels [3]: decreased phosphorylated AKT levels | phosphorylated ERK levels ([3]; confirmed by Western blots): decreased phosphorylated ERK levels | IC50 (H2030BrM3 cells): 700 nM
